Where “and” joins values, the source holds several entries; their conditions need not be identical. Equal values may be shown once.
System: cAMP levels in FRT cells
Experiment: Tropix assay for measurement of cAMP in FRT cells
Format: cell-based, rat
Settings: n=4; for cAMP generated, average % of cAMP produced by 20 μM of forskolin: 15 minutes incubation
Method: In the following example, the effect on cAMP levels by three structurally similar compounds from Table 1 were determined using the cAMP levels from 20 μM forskolin as the normalized reference measure.
The level of cAMP in FRT cells following 0.5 μM forskolin or test compound application was determined using a commercially available chemiluminiscent immunoassay system for mammalian cells called Tropix® (Applied Biosystems, Bedford, Mass.). Briefly, FRT cells were incubated for 15 minutes with a test compound in the presence and absence of 0.5 μM forskolin. The compounds were aspirated and the cells were then lysed and transferred along with the lysis buffer to a 96-well Tropix® ELISA plate. A cAMP-Alk Phos conjugate is then added to the assay plate, followed by the addition of cAMP anti-body. After several wash and aspiration steps, Sapphire blue II solution is added and the […], and the cAMP concentrations were determined using a cAMP standard curve that was present in each plate.

[1] = compound in the presence of 0.5 μM forskolin, FRT cells

COc1ccc(C(C)(C)CNC(=O)c2cc3ccccc3o2)cc1OC [Compound 34, N-(2-(3,4-dimethoxyphenyl)-2-methylpropyl)benzofuran-2-carboxamide]
cAMP generated, average % of cAMP produced by 20 μM of forskolin (compound alone, FRT cells): 24.4±1.1%
change of cAMP compared with the DMSO control (compound alone): not a significant increase
cAMP generated, average % of cAMP produced by 20 μM of forskolin [1]: 61.5±1.8%
change of cAMP compared with the 0.5 μM forskolin control (compound in the presence of 0.5 μM forskolin): significant increase

C=C[C@@]1(C)CC(=O)[C@]2(O)[C@@]3(C)[C@@H](O)CCC(C)(C)[C@@H]3[C@H](O)[C@H](OC(C)=O)[C@@]2(C)O1 [forskolin, reference compound]
cAMP of the 0.5 μM forskolin control, % of 20 μM forskolin (0.5 μM forskolin alone, FRT cells): 45.9±3.0% and 32.2±3.2%

COc1ccc(C2(CNC(=O)c3cc4ccccc4o3)CCCC2)cc1OC [Compound 7, N-((1-(3,4-dimethoxyphenyl)-cyclopentyl)methyl)benzofuran-2-carboxamide]
cAMP generated, average % of cAMP produced by 20 μM of forskolin (compound alone, FRT cells): 40.3±3.5%
cAMP generated, average % of cAMP produced by 20 μM of forskolin [1]: 92.3±2.7%

— patent US7598412B2, “Modulators of ATP-binding cassette transporters” (Vertex Pharmaceuticals Incorporated, priority 2003, dated 2009)
